Data reported in patent publication US20250145585A1, “HETEROCYCLIC INHIBITORS OF IGF-1R FOR TREATMENT OF DISEASE” (HORIZON THERAPEUTICS IRELAND DAC, priority 2023, published 2025).

Biological target: T1, IGF-1R (Homo sapiens, UniProt P08069)
T1 construct: expressed in transfected cells
Experiment: Example B-2: IGF-1R Assay (PathHunter cell lines, EC80 agonist challenge, chemiluminescent detection)
Assay type: cell-based
Conditions: PathHunter cells, compound 60 minutes at 37° C., EC80 agonist 3 hours; read-out: IC50, Biological Activity against IGF-1R (Table B2)
Procedure, shortened: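 PathHunter cells were pre-incubated with compound for 60 min at 37° C (1% vehicle), then challenged with EC80 agonist for 3 h at room temperature. Chemiluminescent detection after 1 h gave % inhibition relative to EC80 and vehicle controls, from which IC50 was derived.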

T1 sequence (P08069 31-1367): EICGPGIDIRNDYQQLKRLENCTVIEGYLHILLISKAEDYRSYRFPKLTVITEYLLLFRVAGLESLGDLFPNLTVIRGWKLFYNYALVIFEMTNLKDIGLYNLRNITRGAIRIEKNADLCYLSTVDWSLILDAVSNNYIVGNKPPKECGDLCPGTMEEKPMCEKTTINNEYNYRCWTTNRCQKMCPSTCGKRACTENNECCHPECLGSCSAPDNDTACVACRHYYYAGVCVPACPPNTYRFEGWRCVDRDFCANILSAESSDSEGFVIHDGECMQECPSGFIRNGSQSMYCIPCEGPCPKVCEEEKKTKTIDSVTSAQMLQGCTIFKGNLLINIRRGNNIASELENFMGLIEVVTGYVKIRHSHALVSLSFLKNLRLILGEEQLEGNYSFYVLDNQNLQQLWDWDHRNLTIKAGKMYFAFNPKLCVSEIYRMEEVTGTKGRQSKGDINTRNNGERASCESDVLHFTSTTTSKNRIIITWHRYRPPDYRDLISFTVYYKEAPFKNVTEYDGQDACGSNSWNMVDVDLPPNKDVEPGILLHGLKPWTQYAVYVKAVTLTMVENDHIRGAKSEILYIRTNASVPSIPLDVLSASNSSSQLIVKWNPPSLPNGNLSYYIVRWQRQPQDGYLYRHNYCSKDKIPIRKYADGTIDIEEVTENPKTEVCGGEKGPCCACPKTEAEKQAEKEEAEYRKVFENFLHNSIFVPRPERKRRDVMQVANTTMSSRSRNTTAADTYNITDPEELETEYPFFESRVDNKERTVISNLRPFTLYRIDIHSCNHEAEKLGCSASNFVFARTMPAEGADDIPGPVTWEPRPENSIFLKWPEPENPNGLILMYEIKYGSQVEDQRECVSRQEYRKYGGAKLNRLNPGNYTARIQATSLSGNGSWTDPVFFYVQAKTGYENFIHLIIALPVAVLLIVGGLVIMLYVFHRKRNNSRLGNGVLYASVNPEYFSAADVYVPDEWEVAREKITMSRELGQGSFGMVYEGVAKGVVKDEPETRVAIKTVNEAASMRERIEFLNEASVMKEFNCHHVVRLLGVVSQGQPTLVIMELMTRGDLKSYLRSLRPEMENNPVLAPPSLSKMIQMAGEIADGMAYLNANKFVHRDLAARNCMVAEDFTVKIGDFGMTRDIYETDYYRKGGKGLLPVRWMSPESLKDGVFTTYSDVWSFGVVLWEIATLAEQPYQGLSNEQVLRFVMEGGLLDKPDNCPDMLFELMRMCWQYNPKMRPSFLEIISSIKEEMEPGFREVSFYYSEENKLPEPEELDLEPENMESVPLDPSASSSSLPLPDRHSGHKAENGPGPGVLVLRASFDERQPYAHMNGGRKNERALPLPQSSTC

Row | Structure (SMILES) | IC50
1 | Cn1nc(C(C)(C)C)cc1N1C(=O)N(Cc2ccnc(N[C@H]3CCOC3)c2)C(C)(C)C1=O [Compound 261, (S)-3-(3-(tert-butyl)-1-methyl-1H-pyrazol-5-yl)-5,5-dimethyl-1-((2-((tetrahydrofuran-3-yl)amino)pyridin-4-yl)methyl)imidazolidine-2,4-dione] | > 10000 nM
2 | C[C@@H](CC#N)Nc1cc(CN2C(=O)N(c3cc(C(C)(C)C)nn3C)C(=O)C2(C)C)ccn1 [Compound 262, (S)-3-((4-((3-(3-(tert-butyl)-1-methyl-1H-pyrazol-5-yl)-5,5-dimethyl-2,4-dioxoimidazolidin-1-yl)methyl)pyridin-2-yl)amino)butanenitrile] | > 10000 nM
3 | CC(C)c1ccc(N2C(=O)N(Cc3ccnc(N[C@H]4[C@@H]5COC[C@@H]54)c3)C(C)(C)C2=O)cc1C#N [Compound 279, 5-(3-((2-(((1R,5S,6r)-3-oxabicyclo[3.1.0]hexan-6-yl)amino)pyridin-4-yl)methyl)-4,4-dimethyl-2,5-dioxoimidazolidin-1-yl)-2-isopropylbenzonitrile] | ≤ 500 nM
4 | CC(C)c1ccc(N2C(=O)N(Cc3ccnc(N[C@H]4[C@@H]5COC[C@@H]54)c3)C(C)(C)C2=O)cc1OCCN(C)C [Compound 280, 1-((2-(((1R,5S,6r)-3-oxabicyclo[3.1,0]hexan-6-yl)amino)pyridin-4-yl)methyl)-3-(3-(2-(dimethylamino)ethoxy)-4-isopropylphenyl)-5,5-dimethylimidazolidine-2,4-dione] | ≤ 500 nM
5 | CN(C)CC(=O)Nc1cc(N2C(=O)N(Cc3ccnc(N[C@H]4[C@@H]5COC[C@@H]54)c3)C(C)(C)C2=O)ccc1OC(F)(F)F [Compound 281, N-(5-(3-((2-(((1R,5S,6r)-3-oxabicyclo[3.1.0]hexan-6-yl)amino)pyridin-4-yl)methyl)-4,4-dimethyl-2,5-dioxoimidazolidin-1-yl)-2-(trifluoromethoxy)phenyl)-2-(dimethylamino)acetamide] | ≤ 500 nM
6 | CN(C)CCOc1cc(N2C(=O)N(Cc3ccnc(N[C@H]4[C@@H]5COC[C@@H]54)c3)C(C)(C)C2=O)ccc1OC(F)(F)F [Compound 282, 1-((2-(((1R,5S,6r)-3-oxabicyclo[3.1.0]hexan-6-yl)amino)pyridin-4-yl)methyl)-3-(3-(2-(dimethylamino)ethoxy)-4-(trifluoromethoxy)phenyl)-5,5-dimethylimidazolidine-2,4-dione] | ≤ 500 nM
7 | CC1(C)C(=O)N(c2ccc(OC(F)(F)F)c(NS(C)(=O)=O)c2)C(=O)N1Cc1ccnc2c1CC(=O)N2 [Compound 283, N-(5-(4,4-dimethyl-2,5-dioxo-3-((2-oxo-2,3-dihydro-1H-pyrrolo[2,3-b]pyridin-4-yl)methyl)imidazolidin-1-yl)-2-(trifluoromethoxy)phenyl) methanesulfonamide] | > 10000 nM
8 | CN(C)CCOc1cc(N2C(=O)N(Cc3ccnc4c3CC(=O)N4)C(C)(C)C2=O)ccc1OC(F)(F)F [Compound 284, 3-(3-(2-(dimethylamino)ethoxy)-4-(trifluoromethoxy)phenyl)-5,5-dimethyl-1-((2-oxo-2,3-dihydro-1H-pyrrolo[2,3-b]pyridin-4-yl)methyl)imidazolidine-2,4-dione] | 500 to 2000 nM
9 | CC1(C)C(=O)N(c2ccc(OC(F)(F)F)cc2)C(=O)N1Cc1ccnc2c1CC(=O)N2 [Compound 285, 5,5-dimethyl-1-((2-oxo-2,3-dihydro-1H-pyrrolo[2,3-b]pyridin-4-yl)methyl)-3-(4-(trifluoromethoxy)phenyl) imidazolidine-2,4-dione] | 500 to 2000 nM
10 | CC1(C)C(=O)N(c2ccc(OC(F)(F)F)c(F)c2)C(=O)N1Cc1ccnc2c1CC(=O)N2 [Compound 286, 3-(3-fluoro-4-(trifluoromethoxy)phenyl)-5,5-dimethyl-1-((2-oxo-2,3-dihydro-1H-pyrrolo[2,3-b]pyridin-4-yl)methyl)imidazolidine-2,4-dione] | 2000 to 10000 nM
11 | CC1(C)C(=O)N(c2ccc(OC(F)(F)F)c(Cl)c2)C(=O)N1Cc1ccnc2c1CC(=O)N2 [Compound 287, 3-(3-chloro-4-(trifluoromethoxy)phenyl)-5,5-dimethyl-1-((2-oxo-2,3-dihydro-1H-pyrrolo[2,3-b]pyridin-4-yl)methyl)imidazolidine-2,4-dione] | 2000 to 10000 nM
12 | CC1(C)C(=O)N(c2ccc(OC(F)(F)F)c(C#N)c2)C(=O)N1Cc1ccnc2c1CC(=O)N2 [Compound 288, 5-(4,4-dimethyl-2,5-dioxo-3-((2-oxo-2,3-dihydro-1H-pyrrolo[2,3-b]pyridin-4-yl)methyl)imidazolidin-1-yl)-2-(trifluoromethoxy)benzonitrile] | > 10000 nM
13 | CC1(C)C(=O)N(c2ccc(S(=O)(=O)C(F)(F)F)cc2)C(=O)N1Cc1ccnc(N[C@H]2CCOC2)c1 [Compound 320, (S)-5,5-dimethyl-1-((2-((tetrahydrofuran-3-yl)amino)pyridin-4-yl)methyl)-3-(4-((trifluoromethyl)sulfonyl)phenyl) imidazolidine-2,4-dione] | ≤ 500 nM
14 | C[C@@H](CC#N)Nc1cc(CN2C(=O)N(c3ccc(S(=O)(=O)C(F)(F)F)cc3)C(=O)C2(C)C)ccn1 [Compound 321, (S)-3-((4-((5,5-dimethyl-2,4-dioxo-3-(4-((trifluoromethyl)sulfonyl)phenyl)imidazolidin-1-yl)methyl)pyridin-2-yl)amino)butanenitrile] | 500 to 2000 nM
15 | CC1(C)C(=O)N(c2ccc(S(=O)(=O)C(F)(F)F)cc2)C(=O)N1Cc1ccnc(NC2CCN(S(C)(=O)=O)CC2)c1 [Compound 322, 5,5-dimethyl-1-((2-((1-(methylsulfonyl)piperidin-4-yl)amino)pyridin-4-yl)methyl)-3-(4-((trifluoromethyl)sulfonyl)phenyl) imidazolidine-2,4-dione] | 500 to 2000 nM
16 | CN1C[C@@H](Nc2cc(CN3C(=O)N(c4ccc(S(=O)(=O)C(F)(F)F)cc4)C(=O)C3(C)C)ccn2)CC1=O [Compound 323, (S)-5,5-dimethyl-1-((2-((1-methyl-5-oxopyrrolidin-3-yl)amino)pyridin-4-yl)methyl)-3-(4-((trifluoromethyl)sulfonyl)phenyl) imidazolidine-2,4-dione] | 2000 to 10000 nM
17 | CN1C[C@H](Nc2cc(CN3C(=O)N(c4ccc(S(=O)(=O)C(F)(F)F)cc4)C(=O)C3(C)C)ccn2)CC1=O [Compound 324, (R)-5,5-dimethyl-1-((2-((1-methyl-5-oxopyrrolidin-3-yl)amino)pyridin-4-yl)methyl)-3-(4-((trifluoromethyl)sulfonyl)phenyl) imidazolidine-2,4-dione] | 500 to 2000 nM
18 | CC1(C)C(=O)N(c2ccc(S(=O)(=O)C(F)(F)F)cc2)C(=O)N1Cc1ccnc(NC2CCc3cn[nH]c3C2)c1 (centres unmarked) [Compound 325, 5,5-dimethyl-1-((2-((4,5,6,7-tetrahydro-1H-indazol-6-yl)amino)pyridin-4-yl)methyl)-3-(4-((trifluoromethyl)sulfonyl)phenyl) imidazolidine-2,4-dione] | ≤ 500 nM
19 | CN1CCC(Nc2cc(CN3C(=O)N(c4ccc(S(=O)(=O)C(F)(F)F)cc4)C(=O)C3(C)C)ccn2)CC1=O (centres unmarked) [Compound 326, 5,5-dimethyl-1-((2-((1-methyl-2-oxopiperidin-4-yl)amino)pyridin-4-yl)methyl)-3-(4-((trifluoromethyl)sulfonyl)phenyl) imidazolidine-2,4-dione] | 2000 to 10000 nM
20 | CC1(C)C(=O)N(c2ccc(S(=O)(=O)C(F)(F)F)cc2)C(=O)N1Cc1ccnc(NC2CS(=O)(=O)C2)c1 [Compound 327, 1-((2-((1,1-dioxidothietan-3-yl)amino)pyridin-4-yl)methyl)-5,5-dimethyl-3-(4-((trifluoromethyl)sulfonyl)phenyl) imidazolidine-2,4-dione] | 2000 to 10000 nM
21 | CN1CCCC(Nc2cc(CN3C(=O)N(c4ccc(S(=O)(=O)C(F)(F)F)cc4)C(=O)C3(C)C)ccn2)C1=O (centres unmarked) [Compound 328, 5,5-dimethyl-1-((2-((1-methyl-2-oxopiperidin-3-yl)amino)pyridin-4-yl)methyl)-3-(4-((trifluoromethyl)sulfonyl)phenyl) imidazolidine-2,4-dione] | > 10000 nM
22 | CC1(C)C(=O)N(c2ccc(S(=O)(=O)C(F)(F)F)cc2)C(=O)N1Cc1ccnc(NC2CCN(S(C)(=O)=O)C2)c1 (centres unmarked) [Compound 329, 5,5-dimethyl-1-((2-((1-(methylsulfonyl)pyrrolidin-3-yl)amino)pyridin-4-yl)methyl)-3-(4-((trifluoromethyl)sulfonyl)phenyl) imidazolidine-2,4-dione] | 500 to 2000 nM
23 | CN1CC(Nc2cc(CN3C(=O)N(c4ccc(S(=O)(=O)C(F)(F)F)cc4)C(=O)C3(C)C)ccn2)CCC1=O (centres unmarked) [Compound 330, 5,5-dimethyl-1-((2-((1-methyl-6-oxopiperidin-3-yl)amino)pyridin-4-yl)methyl)-3-(4-((trifluoromethyl)sulfonyl)phenyl) imidazolidine-2,4-dione] | 500 to 2000 nM
24 | C[C@H](CC#N)Nc1cc(CN2C(=O)N(c3ccc(S(=O)(=O)C(F)(F)F)cc3)C(=O)C2(C)C)ccn1 [Compound 331, (R)-3-((4-((5,5-dimethyl-2,4-dioxo-3-(4-((trifluoromethyl)sulfonyl)phenyl)imidazolidin-1-yl)methyl)pyridin-2-yl)amino)butanenitrile] | 500 to 2000 nM
25 | CN1CCC(Nc2cc(CN3C(=O)N(c4ccc(S(=O)(=O)C(F)(F)F)cc4)C(=O)C3(C)C)ccn2)C1=O (centres unmarked) [Compound 332, 5,5-dimethyl-1-((2-((1-methyl-2-oxopyrrolidin-3-yl)amino)pyridin-4-yl)methyl)-3-(4-((trifluoromethyl)sulfonyl)phenyl) imidazolidine-2,4-dione] | 2000 to 10000 nM
26 | CC1(C)C(=O)N(c2ccc(S(=O)(=O)C(F)(F)F)cc2)C(=O)N1Cc1ccnc(NC2CCNC(=O)C2)c1 (centres unmarked) [Compound 333, 5,5-dimethyl-1-((2-((2-oxopiperidin-4-yl)amino)pyridin-4-yl)methyl)-3-(4-((trifluoromethyl)sulfonyl)phenyl) imidazolidine-2,4-dione] | 500 to 2000 nM
